Source: US20220274954A1, “SUBSTITUTED N-PHENYL-N-AMINOUARCILS AND SALTS THEREOF AND USE THEREOF AS HERBICIDAL AGENTS” (Bayer Aktiengesellschaft, priority 2019, published 2022)

What was measured:
Assay type in all cases: in vivo
Triticum aestivum = experiment: Post-emergence crop plant compatibility; conditions: application rate 1.25 g/ha
Experimental: (§1) Seeds of monocotyledonous and dicotyledonous weeds and crop plants were placed in sandy loam in plastic or wood-fiber pots, covered with soil and cultivated in a greenhouse under controlled growth conditions. 2 to 3 weeks after sowing, the test plants were treated at the one-leaf stage. The compounds of the invention, formulated in the form of wettable powders (WP) or as emulsion concentrates (EC), were then sprayed onto the green parts of the plants as aqueous suspension or emulsion with addition of 0.5% additive at a water application rate of […] (converted). After the test plants had been kept in the greenhouse under optimum growth conditions for about 3 weeks, the activity of the preparations was rated visually in comparison to untreated controls. For example, 100% activity=the plants have died, 0% activity=like control plants.
(§2) Here, the observed effects on selected crop plants are stated in comparison to the untreated controls (values in %).

Alopecurus myosuroides = experiment: Post-emergence herbicidal action
Experimental: as §1, with “plants. Tables A1 to A14 below show the effects of selected compounds of the general formula (I) according to Tables I.1 to I.34 on various harmful plants and at an application rate corresponding to 20 g/ha and less, which were obtained by the experimental procedure mentioned above.” for “plants.”

Echinochloa crus-galli = experiment: Post-emergence herbicidal action
Experimental: as §1, with “plants. Tables A1 to A14 below show the effects of selected compounds of the general formula (I) according to Tables I.1 to I.34 on various harmful plants and at an application rate corresponding to 20 g/ha and less, which were obtained by the experimental procedure mentioned above.” for “plants.”

Pharbitis purpurea = experiment: Post-emergence herbicidal action
Experimental: as §1, with “plants. Tables A1 to A14 below show the effects of selected compounds of the general formula (I) according to Tables I.1 to I.34 on various harmful plants and at an application rate corresponding to 20 g/ha and less, which were obtained by the experimental procedure mentioned above.” for “plants.”

Veronica persica = experiment: Post-emergence herbicidal action
Experimental: as §1, with “plants. Tables A1 to A14 below show the effects of selected compounds of the general formula (I) according to Tables I.1 to I.34 on various harmful plants and at an application rate corresponding to 20 g/ha and less, which were obtained by the experimental procedure mentioned above.” for “plants.”

Matricaria inodora = experiment: Post-emergence herbicidal action
Experimental: as §1, with “plants. Tables A1 to A14 below show the effects of selected compounds of the general formula (I) according to Tables I.1 to I.34 on various harmful plants and at an application rate corresponding to 20 g/ha and less, which were obtained by the experimental procedure mentioned above.” for “plants.”

Avena fatua = experiment: Post-emergence herbicidal action; conditions: application rate 20 g/ha
Experimental: as §1, with “plants. Tables A1 to A14 below show the effects of selected compounds of the general formula (I) according to Tables I.1 to I.34 on various harmful plants and at an application rate corresponding to 20 g/ha and less, which were obtained by the experimental procedure mentioned above.” for “plants.”

Abutilon theophrasti = experiment: Post-emergence herbicidal action
Experimental: as §1, with “plants. Tables A1 to A14 below show the effects of selected compounds of the general formula (I) according to Tables I.1 to I.34 on various harmful plants and at an application rate corresponding to 20 g/ha and less, which were obtained by the experimental procedure mentioned above.” for “plants.”

Viola tricolor = experiment: Post-emergence herbicidal action
Experimental: as §1, with “plants. Tables A1 to A14 below show the effects of selected compounds of the general formula (I) according to Tables I.1 to I.34 on various harmful plants and at an application rate corresponding to 20 g/ha and less, which were obtained by the experimental procedure mentioned above.” for “plants.”

Amaranthus retroflexus = experiment: Post-emergence herbicidal action
Experimental: as §1, with “plants. Tables A1 to A14 below show the effects of selected compounds of the general formula (I) according to Tables I.1 to I.34 on various harmful plants and at an application rate corresponding to 20 g/ha and less, which were obtained by the experimental procedure mentioned above.” for “plants.”

Oryza sativa = experiment: Post-emergence crop plant compatibility; conditions: application rate 1.25 g/ha
Experimental: as §1, §2

Structure (SMILES) | Triticum aestivum (efficacy in %) (Triticum aestivum) [%] | Alopecurus myosuroides (efficacy in %) (Alopecurus myosuroides; application rate 5 g/ha) [%] | Alopecurus myosuroides (efficacy in %) (Alopecurus myosuroides; application rate 20 g/ha) [%] | Echinochloa crus-galli (efficacy in %) (Echinochloa crus-galli; application rate 5 g/ha) [%] | Echinochloa crus-galli (efficacy in %) (Echinochloa crus-galli; application rate 20 g/ha) [%] | Pharbitis purpurea (efficacy in %) (Pharbitis purpurea; application rate 5 g/ha) [%] | Pharbitis purpurea (efficacy in %) (Pharbitis purpurea; application rate 20 g/ha) [%] | Veronica persica (efficacy in %) (Veronica persica; application rate 5 g/ha) [%] | Veronica persica (efficacy in %) (Veronica persica; application rate 20 g/ha) [%] | Matricaria inodora (efficacy in %) (Matricaria inodora; application rate 5 g/ha) [%] | Matricaria inodora (efficacy in %) (Matricaria inodora; application rate 20 g/ha) [%] | Avena fatua (efficacy in %) (Avena fatua) [%] | Abutilon theophrasti (efficacy in %) (Abutilon theophrasti; application rate 5 g/ha) [%] | Abutilon theophrasti (efficacy in %) (Abutilon theophrasti; application rate 20 g/ha) [%] | Viola tricolor (efficacy in %) (Viola tricolor; application rate 5 g/ha) [%] | Viola tricolor (efficacy in %) (Viola tricolor; application rate 20 g/ha) [%] | Amaranthus retroflexus (efficacy in %) (Amaranthus retroflexus; application rate 5 g/ha) [%] | Amaranthus retroflexus (efficacy in %) (Amaranthus retroflexus; application rate 20 g/ha) [%] | Oryza sativa (efficacy in %) (Oryza sativa) [%]
N#CCOC(=O)COc1ncccc1Sc1cc(-n2c(=O)cc(C(F)(F)F)n(N)c2=O)c(F)cc1Cl [I.1-176] | 20 | 90 | 100 | 90 | 100 | 100 | 100 | 100 | 100 | 100 | 100 | 80 | 100 | 100 | 100 | 100 | 100 | 100 | 
Nn1c(C(F)(F)F)cc(=O)n(-c2cc(Sc3cccnc3OCC(=O)OCc3ccccn3)c(Cl)cc2F)c1=O [I.1-286] | 20 | 100 | 100 |  |  | 100 |  | 100 | 100 | 100 | 100 | 80 | 100 | 100 | 100 | 100 | 100 | 100 | 0
